Results from patent publication US5063222A, “Antiinflammatory dexamethasone 17α-cyclopropanecarboxylates with reduced systemic activity” (SS Pharmaceutical Co., Ltd., priority 1989, dated 1991).

Columns and labels:
human skin = assay: Skin vessel constriction activity (local anti-inflammatory effect on human skin); assay type: in vivo, human (healthy male subjects); conditions: probit method
Method: Skin vessel constriction effects on human skin of the present invention were investigated according to the following method. Dexamethasone 17,21-dipropionate which is known as a very strong anti-inflammatory agent for external application was used as a comparative compound.
Fifteen (15) healthy male subjects who were free from any skin disease anamnesis, such as eczema, dermatosis, or the like, received the test. Test compounds were diluted with 95% ethanol to make 6 sample solutions with different concentrations; highest concentration: 1×10^-2, lowest concentration: 1×10^-7. A strap to which acryl cells (diameter: 12 mm, thickness: 2 mm, height, 3 mm) were fixed was applied to the back of each subject. The test compound solution was then dropped with a pippet, 0.02 ml per drop, according to a key-code allocated at random. After drying by air, the strap was peeled off. The coated area was covered with a polyvinylidene chloride film, of which the periphery was fixed with a strap for the patch test. The period of time during which the covering was applied was 16 hours. The judgment was made according to the following standard four times at 1, 2, 5, and 8 hours after the removal of the film.
++: The coated skin was strongly pale.
+: The coated skin was distinctly pale.
±: The coated skin was slightly pale.
The results were analyzed by the probit method to obtain the ED50 value (≥+) at which the coated area was clearly pale. The results are shown in Table 2, in which the relative value for the compounds of the present invention determined by taking the ED50 value for dexamethasone 17,21-dipropionate as 100 are given in parentheses.

[1] = tested on: carrageenin edema of the right hind paw of rats; assay: Carrageenin paw edema, systemic (subcutaneous, back) administration, edema inhibition ED40; assay type: in vivo, Wister male rats; conditions: Rattus norvegicus, sc; s.c. into back, 60 min before 1% carrageenin; edema 3 hours after carrageenin
Method: (§1) Using Wister male rats weighting 130-150 g, each group consisting of 6 rats, the local selectivity of the anti-inflammatory action was investigated by the systemic and local administration of the compounds of the present invention and comparative compounds.
In the evaluation of systemic administration, a test compound suspended into 1% gum arabic was subcutaneously injected into back of rats at doses of 0.01, 0.03, 0.1, and 0.3 mg/kg (5 ml/kg). After 60 minutes following the administration, 1% carrageenin (0.1 ml) was injecte into the plantar surface of the right hind paw. The paw volume was measured with a plethysmometer before and 3 hours after the carrageenin injection. The value was compared with the corresponding value of the control group, thus obtaining the edema inhibition rate, from which ED40 was determined.

[2] = tested on: carrageenin edema of the paw of rats; assay: Carrageenin paw edema, local (into paw) administration, edema inhibition ED40; local selectivity (A)/(B); assay type: in vivo, Wister male rats; conditions: ratio of ED40 systemic to ED40 local
Method: as §1
For the local administration test, the test compound suspended in 1% carrageenin was subcutaneously injected into a paw in the rats at doses of 0.01, 0.03, and 1.0 μg/paw (0.1 ml/paw). Three hours after the carrageenin injection, the volume of the edema was compared with the corresponding value of the control group, thus obtaining the edema inhibition rate, from which ED40 was determined.
The ratio of the ED40 values thus obtained was taken for the evaluation of the local selectivity. [formula]
The higher the value, the greater is the selectivity.

[3] = 1 hour after removal of film (16 hours covering)
[4] = 2 hours after removal of film (16 hours covering)
[5] = 5 hours after removal of film (16 hours covering)
[6] = 8 hours after removal of film (16 hours covering)

C[C@@H]1C[C@H]2[C@@H]3CCC4=CC(=O)C=C[C@]4(C)[C@@]3(F)[C@@H](O)C[C@]2(C)[C@@]1(OC(=O)C1CC1)C(=O)COC(=O)C1CC1 [Compound No. 4, 9α-fluoro-11β,17,21-trihydroxy-16α-methylpregna-1,4-diene-3,20-dione 17,21-dicyclopropanecarboxylate]
ED50 value (≥ +) concentration (human skin; [3]): 5.10 × 10^-4%
ED50 value (≥ +) concentration (human skin; [4]): 3.17 × 10^-4%
ED50 value (≥ +) concentration (human skin; [5]): 2.00 × 10^-3%
ED50 value (≥ +) concentration (human skin; [6]): 1.36 × 10^-2%
ED40 [1]: 0.83 mg/kg
Local Selectivity (A)/(B) [2]: 3.95

C[C@@H]1C[C@H]2[C@@H]3CCC4=CC(=O)C=C[C@]4(C)[C@@]3(F)[C@@H](O)C[C@]2(C)[C@@]1(OC(=O)C1CC1)C(=O)CO [Compound No. 1, 9α-fluoro-11β,17,21-trihydroxy-16α-methylpregna-1,4-diene-3,20-dione 17-cyclopropanecarboxylate]
ED50 value (≥ +) concentration (human skin; [3]): 1.45 × 10^-4%
ED50 value (≥ +) concentration (human skin; [4]): 1.19 × 10^-4%
ED50 value (≥ +) concentration (human skin; [5]): 7.29 × 10^-4%
ED50 value (≥ +) concentration (human skin; [6]): 1.24 × 10^-2%
ED40 [1]: 0.28 mg/kg
Local Selectivity (A)/(B) [2]: 3.50

CCCC(=O)OCC(=O)[C@@]1(OC(=O)CCC)[C@H](C)C[C@H]2[C@@H]3CCC4=CC(=O)C=C[C@]4(C)[C@@]3(F)[C@@H](O)C[C@@]21C [dexamethasone-17,21-dibutylate, reference compound]
ED40 [1]: 0.34 mg/kg
Local Selectivity (A)/(B) [2]: 2.00

CCC(=O)OCC(=O)[C@@]1(OC(=O)CC)[C@H](C)C[C@H]2[C@@H]3CCC4=CC(=O)C=C[C@]4(C)[C@@]3(F)[C@@H](O)C[C@@]21C [dexamethasone-17,21-dipropionate, Dexamethasone 17,21-dipropionate, reference compound]
ED50 value (≥ +) concentration (human skin; [3]): 5.48 × 10^-4%
ED50 value (≥ +) concentration (human skin; [4]): 4.11 × 10^-4%
ED50 value (≥ +) concentration (human skin; [5]): 8.62 × 10^-3%
ED50 value (≥ +) concentration (human skin; [6]): 3.19 × 10^-2%

CCCC(=O)O[C@]1(C(=O)CO)[C@H](C)C[C@H]2[C@@H]3CCC4=CC(=O)C=C[C@]4(C)[C@@]3(F)[C@@H](O)C[C@@]21C [dexamethasone-17-butylate, reference compound]
ED40 [1]: 0.18 mg/kg
Local Selectivity (A)/(B) [2]: 0.62
